The results in this text go back to patent US20230227466A1, “SUBSTITUTED THIENOPYRIMIDINES THAT INTERACT WITH THE RAS SUPERFAMILY FOR THE TREATMENT OF CANCERS, INFLAMMATORY DISEASES, RASOPATHIES, AND FIBROTIC DISEASE” (SHY Therapeutics, LLC, priority 2020, published 2023).

Where two headings read alike, the source gives them in different places.

Test [1] concerns the target KRas wild type (Homo sapiens, UniProt P01116). Description: Ras GTP binding domain inhibition assay (labeled-GTP competition, cell-free). Set-up: made in house. An outline of the steps:
(§1)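 Immobilized His-tagged protein (Ni plate, 10-30 μg/mL, overnight 4° C); compound 20 μM or dilution series, 1% DMSO, 3 h RT, ±Sos 556-1049 last hour; Cy3/Cy5-GTP 100 nM, 45 min RT; 3× wash; bound fluorescence read.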

Test [2] addresses Rho-A (Homo sapiens, UniProt P61586). The test is described as above. Set-up: made in house. In outline: as §1
The target of test [3] is Rac-1 (Homo sapiens, UniProt P63000). The test is described as above. Further details: made in house. In outline: as §1
For test [4], the target named is T1, KRas G12D mutant (Homo sapiens, UniProt P01116, G12D).
T1 construct: made in house
Described as above. An outline of the steps:
as §1

For test [5], the target named is T2, KRas G12C mutant (Homo sapiens, UniProt P01116, G12C).
T2 construct: made in house
The description is as above. In outline: as §1

Test [6] deals with T3, KRas Q61H mutant (Homo sapiens, UniProt P01116, Q61H).
T3 construct: made in house
Described as above. An outline of the steps: as §1

Test [7] relates to ERK1/2 phosphorylation in Panc-1 cells. Description: Western ERK1/2 cell-based phosphorylation assay. Further details: species or system human. To be noted: at 10 μM, values in brackets < > are activation %, not inhibition. An outline of the steps:
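Western blot with anti-phospho-p44/42 (Thr202/Tyr204) measured ERK1/2 phosphorylation after 15 min EGF (1.5 ng/ml) stimulation. Beforehand, serum-starved (0.5% FBS, overnight) Panc-1 cells received compounds for 6 h at 37 °C, at 10 μM final in 0.3% DMSO or as dilution series for IC50.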

Where [8] appears, read: with SOS, read-out: KRas wild type + SOS: % inh.
Where [9] appears, read: without SOS, read-out: KRas wild type: % inh.
Setting [10] is: with SOS, read-out: Rho-A + SOS: % inh.
Setting [11] is: without SOS, read-out: Rho-A: % inh.
[12] abbreviates: with SOS, read-out: Rac-1 + SOS: % inh.
The mark [13] stands for this setting: without SOS, read-out: Rac-1: % inh.
[14] abbreviates: with SOS, read-out: KRas G12D mutant + SOS: % inh.
[15] abbreviates: without SOS, read-out: KRas G12D mutant: % inh.
The mark [16] stands for this setting: with SOS, read-out: KRas G12C mutant + SOS: % inh.
The mark [17] stands for this setting: without SOS, read-out: KRas G12C mutant: % inh.
[18] abbreviates: with SOS, read-out: KRas Q61H mutant + SOS: % inh.
[19] abbreviates: without SOS, read-out: KRas Q61H mutant: % inh.

With `CO[C@H]1CC[C@@H](Nc2nc(C(N)=O)nc3sccc23)C1` (racemic) [Compound 11, Rac-4-(((1R,3S)-3-methoxycyclopentyl)amino)thieno[2,3-d]pyrimidine-2-carboxamide], the inhibition at 20 µM in test [1] (setting [8]) was 1 to 25%; in test [1] (setting [9]), 0%; in test [2] (setting [10]) it was 1 to 25%; in test [2] (setting [11]) it was 1 to 25%; in test [3] (setting [12]) it was 0%; in test [3] (setting [13]), 0%. In addition, the inhibition at 20 µM in test [4] (setting [14]) is 0%; in test [4] (setting [15]), 1 to 25%; in test [5] (setting [16]), 1 to 25%; in test [5] (setting [17]), 1 to 25%; in test [6] (setting [18]), 0%; in test [6] (setting [19]), 0%. In test [6] (with SOS), the IC50 was over 10 µM. The “% inh of ERK1/2 phosphorylation in PANC-1” value (“% inh” below) in test [7] is 0 (0% inhibition).
`COCC1CN(c2nc(-c3nccn3C)nc3sc(-c4ccn(C(C)C)n4)c(C)c23)CCO1` (racemic) [Compound 45, rac-4-(6-(1-Isopropyl-1H-pyrazol-3-yl)-5-methyl-2-(1-methyl-1H-imidazol-2-yl)thieno[2,3-d]pyrimidin-4-yl)-2-(methoxymethyl)morpholine]: the inhibition at 20 µM in test [1] (setting [8]), in test [1] (setting [9]), in test [2] (setting [10]), in test [2] (setting [11]), in test [3] (setting [12]) and in test [3] (setting [13]) was 76 to 100% throughout. In addition, the inhibition at 20 µM in test [4] (setting [14]) was 76 to 100%; in test [4] (setting [15]), 76 to 100%; in test [5] (setting [16]), 76 to 100%; in test [5] (setting [17]), 51 to 75%; in test [6] (setting [18]), 76 to 100%; in test [6] (setting [19]), 76 to 100%. The “% inh” value in test [7] is “B (26-50% inhibition)”.
For `COCCn1ccnc1-c1nc(N[C@H]2C[C@@H](OC)C2)c2ccsc2n1` [Compound 9, N-((1s,3s)-3-Methoxycyclobutyl)-2-(1-(2-methoxyethyl)-1H-imidazol-2-yl)thieno[2,3-d]pyrimidin-4-amine], the inhibition at 20 µM in test [1] (setting [8]), in test [1] (setting [9]), in test [2] (setting [10]), in test [2] (setting [11]), in test [3] (setting [12]) and in test [3] (setting [13]) was 76 to 100% each time. Also, the inhibition at 20 µM is 76 to 100% in test [4] (setting [14]); 51 to 75% in test [4] (setting [15]); 76 to 100% in test [5] (setting [16]); 76 to 100% in test [5] (setting [17]); 76 to 100% in test [6] (setting [18]); 76 to 100% in test [6] (setting [19]). Further, the concentration for half-maximal inhibition (IC50) in test [6] (with SOS) is 5 to 10 µM. Besides, the “% inh” value in test [7] was 0 (0% inhibition).
Consider `COCCn1ccnc1-c1nc(N[C@@H]2CC[C@H](OC)C2)c2ccsc2n1` (racemic) [Compound 8, Rac-N-((1R,3S)-3-methoxycyclopentyl)-2-(1-(2-methoxyethyl)-1H-imidazol-2-yl)thieno[2,3-d]pyrimidin-4-amine], for which the inhibition at 20 µM in test [1] (setting [8]), in test [1] (setting [9]), in test [2] (setting [10]), in test [2] (setting [11]), in test [3] (setting [12]) and in test [3] (setting [13]) was 76 to 100% throughout. The inhibition at 20 µM in test [4] (setting [14]), in test [4] (setting [15]), in test [5] (setting [16]), in test [5] (setting [17]), in test [6] (setting [18]) and in test [6] (setting [19]) was 76 to 100% each time. The half-maximal inhibitory concentration (IC50) in test [6] (with SOS) lay in the range of 1 to 4.99 µM. The “% inh” value in test [7] was 0 (0% inhibition).
Turning to `CO[C@H]1CC[C@@H](Nc2nc(-c3nccn3C)nc3sc(-c4ccn(C(C)C)n4)c(C)c23)C1` [Compound 32, 6-(1-Isopropyl-1H-pyrazol-3-yl)-N-((1R,3S)-3-methoxycyclopentyl)-5-methyl-2-(1-methyl-1H-imidazol-2-yl)thieno[2,3-d]pyrimidin-4-amine], the inhibition at 20 µM lay within 76 to 100% in test [1] (setting [8]); 76 to 100% in test [1] (setting [9]); 51 to 75% in test [2] (setting [10]); 51 to 75% in test [2] (setting [11]); 26 to 50% in test [3] (setting [12]); 26 to 50% in test [3] (setting [13]). The inhibition at 20 µM lay in the range of 76 to 100% in test [4] (setting [14]); 26 to 50% in test [4] (setting [15]); 76 to 100% in test [5] (setting [16]); 51 to 75% in test [5] (setting [17]); 76 to 100% in test [6] (setting [18]); 51 to 75% in test [6] (setting [19]). Further, the IC50 in test [6] (with SOS) was 1 to 4.99 µM. Besides, in test [7], the “% inh” value is recorded as “D (76-100% inhibition)”.
`CC(C)OCCn1ccnc1-c1nc(O)c2scc(-c3ccccn3)c2n1` [Compound 82, 2-(1-(2-Isopropoxyethyl)-1H-imidazol-2-yl)-7-(pyridin-2-yl)thieno[3,2-d]pyrimidin-4-ol]: the inhibition at 20 µM in test [1] (setting [8]) fell in the range of 51 to 75%; in test [1] (setting [9]) it was 51 to 75%; in test [2] (setting [11]), 51 to 75%; in test [3] (setting [13]), 76 to 100%; in test [4] (setting [14]), 51 to 75%; in test [4] (setting [15]), 51 to 75%. Further, the inhibition at 20 µM in test [5] (setting [16]), in test [5] (setting [17]), in test [6] (setting [18]) and in test [6] (setting [19]) was 51 to 75% each time. The “% inh” value in test [7] is on record as “A (1-25% inhibition)”.
Regarding `O=C(c1nc(O)c2scc(-c3ccccn3)c2n1)N1CCCC1` [Compound 19, (4-Hydroxy-7-(pyridin-2-yl)thieno[3,2-d]pyrimidin-2-yl)(pyrrolidin-1-yl)methanone], the inhibition at 20 µM fell in the range of 1 to 25% in test [1] (setting [8]); 1 to 25% in test [1] (setting [9]); 26 to 50% in test [2] (setting [10]); 26 to 50% in test [2] (setting [11]); 1 to 25% in test [3] (setting [12]); 1 to 25% in test [3] (setting [13]). The inhibition at 20 µM in test [4] (setting [14]) is 1 to 25%; in test [4] (setting [15]), 26 to 50%; in test [5] (setting [16]), 1 to 25%; in test [5] (setting [17]), 1 to 25%; in test [6] (setting [18]), 1 to 25%; in test [6] (setting [19]), 1 to 25%. In addition, the IC50 in test [6] (with SOS) is over 10 µM. In addition, the “% inh” value in test [7] was 0 (0% inhibition).
For the molecule `O=C(c1nc(O)c2scc(-c3ccccn3)c2n1)N1CCOCC1` [Compound 22, (4-Hydroxy-7-(pyridin-2-yl)thieno[3,2-d]pyrimidin-2-yl)(morpholino)methanone], the inhibition at 20 µM in test [1] (setting [8]), in test [1] (setting [9]), in test [2] (setting [10]), in test [2] (setting [11]), in test [3] (setting [12]) and in test [3] (setting [13]) was 1 to 25% in each case. In addition, the inhibition at 20 µM in test [4] (setting [14]) was 0%; in test [4] (setting [15]), 1 to 25%; in test [5] (setting [16]) it was 0%; in test [5] (setting [17]), 1 to 25%; in test [6] (setting [18]), 1 to 25%; in test [6] (setting [19]) it was 1 to 25%. Also, in test [6] (with SOS), the concentration for half-maximal inhibition (IC50) is over 10 µM. Also, in test [7], the “% inh” value is on record as 0 (0% inhibition).
